Reference: US9617225B2 (VIROSTATICS SRL, priority 2012, dated 2017)

target: human CDK9/CyclinT kinase complex (Homo sapiens (Human), UniProt P50750); experiment: In Vitro CDK9/CyclinT Assay (IMAP fluorescent polarization); type: biochemical; conditions: not given
Method: In Vitro CDK9/CyclinT Assay
The activity of the compounds described in the present invention can be determined by measuring the phosphorylation of a fluorescently-labeled peptide by human CDK9/CyclinT kinase complex by fluorescent polarization using a commercially available IMAP Screening Express Assay Kit (Molecular devices).
Test compounds were diluted in 100% DMSO to 5 mM stock concentration, then further dilutions were made in H2O or 100% DMSO to desirable concentrations. Each reaction consisted of 5 nM enzyme: CDK9/CyclinT (Proqinase cat#0371-0345-1), 400 nM TAMRA-Rbtide (synthetic 15-mer peptide derived from human retinoblastoma tumor suppressor protein labeled with TAMRA dye, Genecust Europe), 12 μM ATP (=Kmapp, Sigma-Aldrich) and kinase buffer: 20 mM MOPS pH 7 (Sigma-Aldrich), 1 mM DTT (Sigma-Aldrich), 10 mM MgCl2 (Sigma-Aldrich), 0.01% Tween 20 (Sigma-Aldrich).
For each reaction, 4 or 6 μl containing TAMRA-Rbtide, ATP and kianse buffer were combined with 2 μl diluted compound in H2O or 0.028 μl compound in 100% DMSO. The kinase reaction was started by the addition of 2 μl diluted enzyme. The reaction was allowed to run for 1 hour at room temperature. The reaction was stopped by adding 15 μl IMAP beads (1:400 beads in progressive (100% buffer A) 1× buffer).

Chain of human CDK9/CyclinT kinase complex (P50750 whole entry): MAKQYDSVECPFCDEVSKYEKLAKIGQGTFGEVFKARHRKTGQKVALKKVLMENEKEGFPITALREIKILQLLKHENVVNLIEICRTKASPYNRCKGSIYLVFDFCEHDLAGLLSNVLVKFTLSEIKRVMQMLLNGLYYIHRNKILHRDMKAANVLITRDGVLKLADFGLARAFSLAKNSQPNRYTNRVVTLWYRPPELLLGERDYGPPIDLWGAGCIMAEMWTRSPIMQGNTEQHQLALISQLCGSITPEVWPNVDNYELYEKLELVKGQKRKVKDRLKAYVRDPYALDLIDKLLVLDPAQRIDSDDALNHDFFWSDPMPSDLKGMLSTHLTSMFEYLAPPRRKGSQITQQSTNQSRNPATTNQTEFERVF
Chain of human CDK9/CyclinT kinase complex (O60563 whole entry partner): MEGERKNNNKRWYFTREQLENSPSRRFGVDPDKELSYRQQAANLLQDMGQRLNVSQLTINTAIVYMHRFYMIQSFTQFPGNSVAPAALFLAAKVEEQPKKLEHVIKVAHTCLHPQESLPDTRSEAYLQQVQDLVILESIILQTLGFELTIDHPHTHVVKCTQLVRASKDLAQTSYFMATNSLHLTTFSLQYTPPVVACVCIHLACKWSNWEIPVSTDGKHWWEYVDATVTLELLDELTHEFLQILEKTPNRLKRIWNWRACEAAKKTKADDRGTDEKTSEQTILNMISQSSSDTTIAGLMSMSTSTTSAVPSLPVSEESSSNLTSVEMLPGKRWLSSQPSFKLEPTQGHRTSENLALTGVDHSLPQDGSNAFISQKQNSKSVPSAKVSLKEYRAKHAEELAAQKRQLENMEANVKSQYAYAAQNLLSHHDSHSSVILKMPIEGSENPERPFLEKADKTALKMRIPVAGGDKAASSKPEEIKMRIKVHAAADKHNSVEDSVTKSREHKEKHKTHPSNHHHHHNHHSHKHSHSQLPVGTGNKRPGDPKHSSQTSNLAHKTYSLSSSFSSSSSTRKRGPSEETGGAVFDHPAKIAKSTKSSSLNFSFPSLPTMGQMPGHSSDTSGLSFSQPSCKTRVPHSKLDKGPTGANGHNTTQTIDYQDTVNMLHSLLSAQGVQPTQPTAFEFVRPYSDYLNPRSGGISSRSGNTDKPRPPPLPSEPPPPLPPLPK

SMILES | IC50
COc1ccc(Nc2cc(-c3ccccc3OC)ncn2)cc1C(=O)NCCCN1CCN(C)CC1 [Example 47, 2-Methoxy-5-[6-(2-methoxy-phenyl)-pyrimidin-4-ylamino]-N-[3-(4-methyl-piperazin-1-yl)-propyl]-benzamide] | < 1 µM
COc1ccc(Nc2cc(-c3ccccc3OC)ncn2)cc1NC(C)=O [Example 50, N-{2-Methoxy-5-[6-(2-methoxy-phenyl)-pyrimidin-4-ylamino]-phenyl}-acetamide] | < 1 µM
COc1ccc(-c2cc(Nc3ccc(OC)c([N+](=O)[O-])c3)ncn2)cc1 [Example 65, (4-Methoxy-3-nitro-phenyl)-[6-(4-methoxy-phenyl)-pyrimidin-4-yl]-amine] | > 10 µM
COc1ccc(Nc2cc(-c3ccccc3OC)ncn2)cc1OC(C)=O [Example 93, Acetic acid 2-methoxy-5-[6-(2-methoxy-phenyl)-pyrimidin-4-ylamino]-phenyl ester] | < 1 µM
COc1ccccc1-c1cc(Nc2ccc(Oc3ccccc3)c([N+](=O)[O-])c2)ncn1 [Example 96, [6-(2-Methoxy-phenyl)-pyrimidin-4-yl]-(3-nitro-4-phenoxy-phenyl)-amine] | > 10 µM

same assay, conditions: Table 1

SMILES | IC50
COc1ccc(Nc2cc(-c3ccccc3OC)ncn2)cc1C(=O)NCCO [Example 48, N-(2-Hydroxy-ethyl)-2-methoxy-5-[6-(2-methoxy-phenyl)-pyrimidin-4-ylamino]-benzamide] | < 1 µM
COC(=O)Nc1cc(Nc2cc(-c3ccccc3OC)ncn2)ccc1OC [Example 51, {2-Methoxy-5-[6-(2-methoxy-phenyl)-pyrimidin-4-ylamino]-phenyl}-carbamic acid methyl ester] | < 1 µM
CNC(=O)Nc1cc(Nc2cc(-c3ccccc3OC)ncn2)ccc1OC [Example 52, 1-{2-Methoxy-5-[6-(2-methoxy-phenyl)-pyrimidin-4-ylamino]-phenyl}-3-methyl-urea] | < 1 µM
COc1ccc(Nc2cc(-c3ccccc3OC)ncn2)cc1NC(=O)C(C)(C)C [Example 53, N-{2-Methoxy-5-[6-(2-methoxy-phenyl)-pyrimidin-4-ylamino]-phenyl}-2,2-dimethyl-propionamide] | < 1 µM
COc1ccc(Nc2cc(-c3ccccc3OC)ncn2)cc1Nc1nc2ccccc2[nH]1 [Example 54, N^3-(1H-Benzoimidazol-2-yl)-4-methoxy-N^1-[6-(2-methoxy-phenyl)-pyrimidin-4-yl]-benzene-1,3-diamine] | < 10 µM
COc1ccc(Nc2cc(-c3ccccc3OC)ncn2)cc1NC=O [Example 55, N-{2-Methoxy-5-[6-(2-methoxy-phenyl)-pyrimidin-4-ylamino]-phenyl}-formamide] | < 0.1 µM
COc1ccc(Nc2cc(-c3ccccc3OC)ncn2)cc1NC(N)=O [Example 56, {2-Methoxy-5-[6-(2-methoxy-phenyl)-pyrimidin-4-ylamino]-phenyl}-urea] | < 1 µM
COc1ccccc1-c1cc(Nc2ccc([N+](=O)[O-])c(F)c2)ncn1 [Example 57, (3-Fluoro-4-nitro-phenyl)-[6-(2-methoxy-phenyl)-pyrimidin-4-yl]-amine] | < 10 µM
COc1ccccc1-c1cc(Nc2ccc([N+](=O)[O-])c(OC)c2)ncn1 [Example 58, (3-Methoxy-4-nitro-phenyl)-[6-(2-methoxy-phenyl)-pyrimidin-4-yl]-amine] | < 10 µM
COc1cc(Nc2cc(-c3ccccc3OC)ncn2)ccc1NS(C)(=O)=O [Example 60, N-{2-Methoxy-4-[6-(2-methoxy-phenyl)-pyrimidin-4-ylamino]-phenyl}-methanesulfonamide] | < 1 µM
CCOc1ccccc1-c1cc(Nc2ccc(OC)c([N+](=O)[O-])c2)ncn1 [Example 61, [6-(2-Ethoxy-phenyl)-pyrimidin-4-yl]-(4-methoxy-3-nitro-phenyl)-amine] | < 1 µM
COc1cc(F)ccc1-c1cc(Nc2ccc(OC)c([N+](=O)[O-])c2)ncn1 [Example 63, [6-(4-Fluoro-2-methoxy-phenyl)-pyrimidin-4-yl]-(4-methoxy-3-nitro-phenyl)-amine] | < 1 µM
CCOc1cc(F)ccc1-c1cc(Nc2ccc(OC)c([N+](=O)[O-])c2)ncn1 [Example 72, [6-(2-Ethoxy-4-fluoro-phenyl)-pyrimidin-4-yl]-(4-methoxy-3-nitro-phenyl)-amine] | < 1 µM
COc1ccc(F)cc1-c1cc(Nc2ccc(OC)c([N+](=O)[O-])c2)ncn1 [Example 74, [6-(5-Fluoro-2-methoxy-phenyl)-pyrimidin-4-yl]-(4-methoxy-3-nitro-phenyl)-amine] | < 10 µM
COc1ccc(Nc2cc(-c3ccccc3Oc3ccccc3)ncn2)cc1[N+](=O)[O-] [Example 76, (4-Methoxy-3-nitro-phenyl)-[6-(2-phenoxy-phenyl)-pyrimidin-4-yl]-amine] | > 10 µM
COc1ccc(Nc2cc(-c3ccccc3OC(C)C)ncn2)cc1[N+](=O)[O-] [Example 78, [6-(2-Isopropoxy-phenyl)-pyrimidin-4-yl]-(4-methoxy-3-nitro-phenyl)-amine] | < 10 µM
COc1ccc(Nc2cc(-c3cccc(F)c3OC)ncn2)cc1[N+](=O)[O-] [Example 80, [6-(3-Fluoro-2-methoxy-phenyl)-pyrimidin-4-yl]-(4-methoxy-3-nitro-phenyl)-amine] | > 10 µM
COc1cc(F)c(F)cc1-c1cc(Nc2ccc(OC)c([N+](=O)[O-])c2)ncn1 [Example 82, [6-(4,5-Difluoro-2-methoxy-phenyl)-pyrimidin-4-yl]-(4-methoxy-3-nitro-phenyl)-amine] | > 10 µM
COc1ccc(Nc2cc(-c3cc(F)c(F)cc3OC)ncn2)cc1NC=O [Example 84, N-{5-[6-(4,5-Difluoro-2-methoxy-phenyl)-pyrimidin-4-ylamino]-2-methoxy-phenyl}-formamide] | < 1 µM
COc1ccc(Nc2cc(-c3ccc(F)cc3OC(C)C)ncn2)cc1[N+](=O)[O-] [Example 85, [6-(4-Fluoro-2-isopropoxy-phenyl)-pyrimidin-4-yl]-(4-methoxy-3-nitro-phenyl)-amine] | < 1 µM
COc1ccccc1-c1cc(Nc2cc(F)c(OC)c([N+](=O)[O-])c2)ncn1 [Example 87, (3-Fluoro-4-methoxy-5-nitro-phenyl)-[6-(2-methoxy-phenyl)-pyrimidin-4-yl]-amine] | < 10 µM
COc1ccc(F)cc1-c1cc(Nc2cc(N)c(OC)c(F)c2)ncn1 [Example 91, 5-Fluoro-N^1-[6-(5-fluoro-2-methoxy-phenyl)-pyrimidin-4-yl]-4-methoxy-benzene-1,3-diamine] | < 1 µM
COc1ccc(Nc2cc(-c3ccccc3OC)ncn2)cc1OC(=O)N(C)C [Example 94, Dimethyl-carbamic acid 2-methoxy-5-[6-(2-methoxy-phenyl)-pyrimidin-4-ylamino]-phenyl ester] | < 1 µM
COC(=O)Oc1cc(Nc2cc(-c3ccccc3OC)ncn2)ccc1OC [Example 95, Carbonic acid 2-methoxy-5-[6-(2-methoxy-phenyl)-pyrimidin-4-ylamino]-phenyl ester methyl ester] | < 1 µM
COc1ccccc1-c1cc(Nc2ccc(Oc3ccccc3)c(N)c2)ncn1 [Example 97, N^1-[6-(2-Methoxy-phenyl)-pyrimidin-4-yl]-4-phenoxy-benzene-1,3-diamine] | < 10 µM
